From ChEMBL document CHEMBL6153163, “Novel 6-Substituted-3-Phenylisoindolin-1-ones as Cbl-B Inhibitors for Treating Cancer” (ACS Med Chem Lett, 2025)

Biological target: E3 ubiquitin-protein ligase CBL-B (Homo sapiens, UniProt Q13191)
Experiment: Inhibition of biotin-tagged Cbl-B (unknown origin) pre-incubated with compound for 60 min followed by Lck addition and measured after 90 mins in presence of ATP by TR-FRET based assay

E3 ubiquitin-protein ligase CBL-B, sequence (Q13191 whole entry): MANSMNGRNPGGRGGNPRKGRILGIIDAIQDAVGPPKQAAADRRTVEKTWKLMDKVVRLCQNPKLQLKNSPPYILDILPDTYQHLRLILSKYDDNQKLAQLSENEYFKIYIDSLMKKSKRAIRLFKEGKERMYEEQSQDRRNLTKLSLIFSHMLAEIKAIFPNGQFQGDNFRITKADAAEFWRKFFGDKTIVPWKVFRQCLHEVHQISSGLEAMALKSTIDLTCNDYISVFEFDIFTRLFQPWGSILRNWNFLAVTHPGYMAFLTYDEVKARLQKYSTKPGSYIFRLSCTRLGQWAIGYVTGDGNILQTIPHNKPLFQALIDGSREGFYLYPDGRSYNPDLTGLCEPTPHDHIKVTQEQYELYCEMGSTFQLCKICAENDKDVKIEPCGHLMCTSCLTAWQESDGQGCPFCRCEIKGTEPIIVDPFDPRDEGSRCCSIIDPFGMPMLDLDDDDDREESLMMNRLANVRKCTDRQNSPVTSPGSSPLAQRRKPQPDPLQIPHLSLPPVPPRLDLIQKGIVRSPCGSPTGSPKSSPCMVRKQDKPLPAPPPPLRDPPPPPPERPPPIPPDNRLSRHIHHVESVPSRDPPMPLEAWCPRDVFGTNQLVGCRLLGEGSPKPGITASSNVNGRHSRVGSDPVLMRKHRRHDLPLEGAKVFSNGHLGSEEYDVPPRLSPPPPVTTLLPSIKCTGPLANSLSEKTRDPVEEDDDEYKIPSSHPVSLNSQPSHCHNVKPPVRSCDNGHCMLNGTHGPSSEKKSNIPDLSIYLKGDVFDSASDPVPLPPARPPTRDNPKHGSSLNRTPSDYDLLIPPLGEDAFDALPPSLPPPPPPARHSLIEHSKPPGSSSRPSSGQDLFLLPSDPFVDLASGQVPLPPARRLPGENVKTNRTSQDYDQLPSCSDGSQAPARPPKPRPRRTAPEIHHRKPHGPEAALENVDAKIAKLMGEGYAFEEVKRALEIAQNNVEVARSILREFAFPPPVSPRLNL

| SMILES | IC50 [nM] |
| --- | --- |
| C[C@@H](NCc1cc2c(c(C(F)F)c1)CN(c1cccc([C@H](c3nncn3C)C3CC(F)C3)c1)C2=O)C1CCC1 (stereo partly specified) | 4.2 |
| CC(C)CNCc1cc(Cl)c2c(c1)C(=O)N(c1cccc([C@H](c3nncn3C)[C@H]3C[C@@H](F)C3)c1)C2 | 4.3 |
| CC(C)CNCc1cc(Cl)c2c(c1)C(=O)N(c1cccc([C@H](c3nncn3C)[C@H]3C[C@@H](CC#N)C3)c1)C2 | 4.2 |

Results, then the compound that gave them:

| IC50 [nM] | SMILES |
| --- | --- |
| 4.1 | Cn1cnnc1[C@]1(c2cccc(N3Cc4c(Cl)cc(CNCC5CCC5)cc4C3=O)c2)C[C@H](Cl)C1 |
| 3.6 | Cn1cnnc1[C@]1(c2cccc(N3Cc4c(Cl)cc(CNCC5CCC5)cc4C3=O)c2)C[C@@H](Cl)C1 |
| 4 | C[C@@H](NCc1cc2c(c(C(F)F)c1)CN(c1cccc([C@]3(c4nncn4C)C[C@H](Cl)C3)c1)C2=O)C1CCC1 |
